Experiments:
Format in all cases: ADME
[1] = Michaelis behavior of the enzyme (PicK/6-His)
[2] = Catalytic constant expressed as Kinetic behavior of enzyme (PicK/6-His)
[3] = Ratio of kcat to Km was evaluated.
[4] = Kinetic behavior of the enzyme (PicK/6-His) was evaluated

Km [1] [µM] | k cat [2] [s⁻¹] | kcat/Km [3] [M⁻¹ s⁻¹] | Km [4] [µM] | Compound
88 | 2 | 23000 | 440 | CC[C@H]1OC(=O)[C@H](C)C(=O)[C@H](C)[C@@H](O[C@@H]2O[C@H](C)C[C@H](N(C)C)[C@H]2O)[C@@H](C)C[C@@H](C)C(=O)/C=C/[C@H]1C
130 | 1.1 | 8000 | 2200 | CC[C@H]1OC(=O)[C@H](C)[C@@H](O[C@@H]2O[C@H](C)C[C@H](N(C)C)[C@H]2O)[C@@H](C)C[C@@H](C)C(=O)/C=C/[C@H]1C

From ChEMBL document CHEMBL1130659, “Macrolide biosynthesis: a single cytochrome P450, PicK, is responsible for the hydroxylations that generate methymycin, neomethymycin, and picromycin in Streptomyces venezuelae” (Bioorg Med Chem Lett, 1998)
